We go through two compounds from article PMC8807572, “The zebrafish embryo as an in vivo model for screening nanoparticle-formulated lipophilic anti-tuberculosis compounds” (Disease Models & Mechanisms, 2022).

Each structure is given as a SMILES string. ≈ marks a conversion by molar mass, not a printed value. Where “and” joins values, the source holds several entries; their conditions need not be identical. Equal values may be shown once. Read-outs that look alike come from different tables or passages of the source.

One data set has as its system extracellular Mm. Put plainly: MIC90 resazurin microtiter assay against extracellular M. marinum. The format is cell-based, Mycobacterium marinum. Background: Resazurin is reduced to fluorescent resorufin, in cell work by metabolically active cells.
Data set [1] concerns intracellular Mm in murine BMDMs. Description: Anti-mycobacterial efficacy in M. marinum-infected BMDMs (CFU plating). The format is cell-based, Mycobacterium marinum. As to conditions: for IC90: Mycobacterium marinum.
A further data set deals with VERO cells. Set-up: method as in data not published. The note with it: cytotoxicity in VERO cells; ref data not published; cited from earlier work.
The test system of the next data set is Mtb. Set-up: method as in data not published. As to conditions: in vitro, phenotypic HTS; ref data not published; cited from earlier work.

For orientation: MIC90 means the lowest concentration that inhibits either 90% of growth or 90% of the strains tested, depending on the study. By IC99 is commonly meant the concentration needed for an effect of 99%. In general, IC90 refers to the concentration needed for an effect of 90%. Consider `CO[C@H]1/C=C/O[C@@]2(C)Oc3c(C)c(O)c4c(O)c(c(/C=N/N5CCN(C)CC5)c(O)c4c3C2=O)NC(=O)/C(C)=C\C=C\[C@H](C)[C@H](O)[C@@H](C)[C@@H](O)[C@@H](C)[C@H](OC(C)=O)[C@@H]1C` [RIF, rifampicin], for which the MIC90 in the data set on extracellular Mm (Mycobacterium marinum, extracellular Mm, resazurin assay, read-out: MIC90) is 0.1 µg/mL and 0.12 µM. Further, the IC99 in data set [1] is 1.97 µg/ml and 2.41 µM. The IC90 in data set [1] (intracellular M. marinum in BMDM, calculated from the macrophage infection assay data, read-out: IC90) is 0.878 µg/mL and 1.07 µM.
For orientation: CC50 means the concentration at which the toxic effect on the cells reaches its halfway point. Regarding `COc1ccc2c(ccc3oc([N+](=O)[O-])cc32)c1` [C16, 7-methoxy-2-nitronaphtho[2,1-b]furan], the 50% cytotoxic concentration (CC50) in the data set on VERO cells was 0.3 µg/mL (≈ 1.23 µM). In addition, in the data set on Mtb, the “MIC90 against Mtb” value was < 8 µg/mL. Also, the MIC90 against extracellular Mm (Mycobacterium marinum) was 0.016 µg/mL and 0.07 µM; against extracellular Mm (extracellular Mm, resazurin assay), 0.016 µg/mL; in the data set on extracellular Mm (extracellular Mm, resazurin assay, read-out: MIC90), 0.07 µM. For the same compound, the IC90 in data set [1] (BMDM) was 0.013 µg/mL and 60 nM. Further, in data set [1] (intracellular M. marinum in BMDM, calculated from the macrophage infection assay data), the IC99 is 0.03 µg/ml and 0.11 µM.
